Legend:
[1] = system: T1, CreSAMT1; assay: GC-MS of methyl ester product, Michaelis-Menten fit; type: biochemical, Citrus reticulata; conditions: co-substrate SAM, Tris-HCl, KCl, pH 7.0, 35 °C
T1 construct: His-tagged (pET6xHN), E. coli BL21(DE3), Ni-IDA purified; tag cleavage not mentioned
Description: GC-MS of methyl ester product, Michaelis-Menten fit on CreSAMT1

[2] = system: T2, CreSAMT2; assay: as above; type: biochemical, Citrus reticulata; conditions: co-substrate SAM, Tris-HCl, KCl, pH 7.0, 25 °C
T2 construct: His-tagged (pET6xHN), E. coli BL21(DE3), Ni-IDA purified; tag cleavage not mentioned
Description: GC-MS of methyl ester product, Michaelis-Menten fit on CreSAMT2

Km [1] [µM]	Km [2] [µM]	SMILES	Km ([1]; sodium salt used) [µM]	Km ([2]; sodium salt used) [µM]
101 ± 33.5	53 ± 11.2	O=C(O)c1ccccc1O [SA, salicylic acid]		
		Nc1ccccc1C(=O)O [AA, anthranilate]	4.82 ± 1.53	18 ± 1.9
61.9 ± 30.7	25 ± 6.89	O=C(O)c1ccccc1 [BA, benzoic acid]		

SMILES	Km [1] [µM]	Km [2] [µM]	Km ([1]; sodium salt used) [µM]	Km ([2]; sodium salt used) [µM]
CNc1ccccc1C(=O)O [NMA, N-methyl-2-aminobenzoic acid]	164 ± 98.4	128 ± 58.9		

Reference: article PMC12968138, “CreSAMT1 is mainly responsible for the biosynthesis of characteristic aroma compound dimethyl anthranilate in Citrus reticulata ‘Chachiensis’” (Horticulture Research, 2025)
